{"source": "patent US20130150330A1", "about": "“DECOQUINATE PRODRUGS” (UNIVERSITY OF KANSAS, priority 2011, published 2013)", "assay": "Solubility in water, increasing amounts added to 1 mL deionized water", "format": "physicochemical", "details": "decoquinate without the prodrug moiety, comparison", "experimental": "Comparatively, decoquinate without the prodrug moiety is practically insoluble in water (<0.05 mg/ml). Improved solubility in water allows administration of the decoquinate prodrug by the intravenous and intramuscular routes. Additionally, water solubility also makes oral administration feasible by improving absorption from the GI tract.", "data": [{"smiles": "CCCCCCCCCCOc1cc2c(O)c(C(=O)OCC)cnc2cc1OCC", "note": "[decoquinate, ethyl 6-(decyloxy)-7-ethoxy-4-oxo-1,4-dihydroquinoline-3-carboxylate]", "values": [{"measurement": "solubility", "value": "< 50", "unit": "µg/mL"}]}]}
